Data: paper PMC6032384 (International Journal of Molecular Sciences, 2018)
Read-outs that look alike come from different tables or passages of the source.

Columns and labels:
[1] = tested on: MRC-5 (human lung fibroblast); test: Alamar blue (AB) cytotoxicity assay, MRC-5 noncancerous cells; assay type: cell-based; conditions: MRC5 non-cancer cells, 72 h
HL-60 cells [2] = test: Cell morphology (May-Grunwald-Giemsa staining) and light scattering by flow cytometry; assay type: cell-based, human; conditions: 24 and 48 h
[3] = tested on: PBMC (human peripheral blood mononuclear cell); test: Alamar blue (AB) cytotoxicity assay, PBMC noncancerous cells; assay type: cell-based; conditions: PBMC non-cancer cells, 72 h
HL-60 cells [4] = assay type: cell-based, human
Description: The internucleosomal DNA fragmentation and cell cycle distribution were assessed in HL-60 cells after 24 and 48 h of incubation with the [Ru(PPh3)2(Thy)(bipy)]PF6 complex in a DNA content-based assay using the dye propidium iodide (PI) and flow cytometry (Table 3). All DNA with a subdiploid size (sub-G0/G1) were considered to be fragmented. At concentrations of 1, 2, and 4 μM, the complex led to, respectively, 19.4%, 30.1%, and 36.2% DNA fragmentation after 24 h of incubation and to 12.5%, 26.7%, and 58.2% DNA fragmentation after 48 h of incubation.
(§1) Light scattering features were determined by flow cytometry. The internucleosomal DNA fragmentation and cell cycle distribution were determined according to Nicoletti et al.. For apoptosis measurements, a FITC Annexin V Apoptosis Detection Kit I (BD Biosciences, San Jose, CA, USA) was used, and the analysis was performed, according to the manufacturer’s instructions. A protection assay using the pan-caspase inhibitor Z-VAD(OMe)-FMK (Cayman Chemical, Ann Arbor, MI, USA) was also evaluated. The mitochondrial transmembrane potential was determined by the retention of the dye rhodamine 123 [28]. The levels of ROS were measured, as previously described, using 2′,7′-dichlorofluorescin diacetate (DCF-DA, Sigma-Aldrich Co.). At least 1 × 10^4 events were recorded per sample using a BD LSRFortessa cytometer along with BD FACSDiva Software (BD Biosciences) and Flowjo Software 10 (Flowjo LCC, Ashland, OR, USA). The cellular debris was omitted from the analysis.

HL-60 cells [5] = conditions: TBE
tested cancer cell lines = test: Alamar blue cytotoxicity, summary over the tested cancer cell lines; assay type: cell-based; conditions: AB assay, 72 h, most of the tested cancer cell lines
[6] = tested on: BAD gene knockout immortalized mouse embryonic fibroblasts (BAD KO SV40 MEF); test: Alamar blue (AB) cytotoxicity assay, BAD KO SV40 MEF; assay type: cell-based; conditions: 72 h
[7] = tested on: B16-F10, HepG2, K562, and HL-60; design: method as in doi:10.1039/C7NJ04368F; conditions: small panel of cancer cells (B16-F10, HepG2, K562, and HL-60), previous study; cited from earlier work
caspase-3 in HL-60 cells = test: Caspase-3 colorimetric assay; assay type: cell-based, human; conditions: 48 h
Description: (§2) Figure 6 Caspase-3 activity (A), assessed by a colorimetric assay after 48 h of incubation, and mitochondrial membrane potential (B), evaluated by flow cytometry using rhodamine 123 staining after 24 h of incubation, of HL-60 cells treatment with the [Ru(PPh3)2(Thy)(bipy)]PF6 complex (CRT). […] Data are presented as the mean ± S.E.M. of at the least three independent experiments. * p < 0.05 as compared with the negative control by ANOVA, followed by the Student Newman-Keuls test.
The cell lines that were used in this study were obtained from the American Type Culture Collection (ATCC) and were cultured, as described previously. Primary PBMCs were obtained with informed consent (# 031019/2013). All the cells were free of contamination, and the cell viability was determined by the TBE or AB assay, which were performed following the procedure that was described previously. The cell morphology analysis was performed using cytospin and May-Grunwald-Giemsa staining as described previously. To investigate caspase-3 activation, a caspase-3 colorimetric assay kit (Sigma-Aldrich Co.) was used.

HL-60 cells [8] = test: ROS levels (DCF-DA, flow cytometry); assay type: cell-based, human; conditions: 1 or 3 h of incubation, data not shown
Description: The induction of ROS production is also an important mechanism for inducing apoptosis.
as §1

HL-60 cells [9] = test: Mitochondrial transmembrane potential (rhodamine 123, flow cytometry); assay type: cell-based, human; conditions: rhodamine 123, 24 h
Description: as §2
as §1, with “The cellular debris was omitted from the analysis.” left out

HL-60 cells [10] = test: Protection assay with pan-caspase inhibitor Z-VAD(OMe)-FMK (annexin V-FITC/PI); assay type: cell-based, human; conditions: 50 µM Z-VAD(OMe)-FMK 2 h, then 4 μM CRT 48 h
Text: Loss of the mitochondrial transmembrane potential is a critical step in intrinsic apoptosis, and activation of caspase-3 (an executioner caspase) favors DNA fragmentation.
Figure 7 Prevention of the apoptosis induced by the [Ru(PPh3)2(Thy)(bipy)]PF6 complex (CRT) in HL-60 cells by a pan-caspase inhibitor (Z-VAD(OMe)-FMK), as assessed by flow cytometry using annexin V-FITC/PI staining. (A) Representative flow cytometry dot plots. (B) Apoptotic cell quantification (annexin V-FITC positive cells). The cells were pretreated for 2 h with 50 µM Z-VAD(OMe)-FMK and then incubated with 4 μM CRT for 48 h. […]
as §1, with “For apoptosis measurements, a FITC Annexin V Apoptosis Detection Kit I (BD Biosciences, San Jose, CA, USA) was used, and the analysis was performed, according to the manufacturer’s instructions.” left out, “The cellular debris was omitted from the analysis.” left out

[11] = tested on: wild-type immortalized mouse embryonic fibroblasts (WT SV40 MEF); test: Alamar blue (AB) cytotoxicity assay, WT SV40 MEF; assay type: cell-based; conditions: 72 h

Cc1c[nH]c(=O)[n-]c1=O.F[P-](F)(F)(F)(F)F.[Ru+2].c1ccc(-c2ccccn2)nc1.c1ccc(P(c2ccccc2)c2ccccc2)cc1.c1ccc(P(c2ccccc2)c2ccccc2)cc1 [CRT, [Ru(PPh3)2(Thy)(bipy)]PF6]
IC50 [1]: 11.5 µM
Cell morphology (HL-60 cells [2]; May-Grunwald-Giemsa-stained cells): cell morphology changes that were associated with apoptosis
Forward light scatter (FSC), cell shrinkage (HL-60 cells [2]; flow cytometry): decrease
Side scatter (SCC), nuclear condensation (HL-60 cells [2]; flow cytometry): increase
IC50 [3]: 1.7 µM
DNA content G0/G1 (HL-60 cells [4]; 1 µM, 24 h): 30.5 ± 4.8 %
DNA content G2/M (HL-60 cells [4]; 1 µM, 24 h): 18.5 ± 0.7%
DNA content S (HL-60 cells [4]; 1 µM, 24 h): 11.5 ± 1.7%
DNA content Sub-G0/G1 (DNA fragmentation) (HL-60 cells [4]; 1 µM, 24 h): 19.4 ± 3.9 %
DNA content Sub-G0/G1 (DNA fragmentation) (HL-60 cells [4]; 1 µM, 24 h, listed as [Ru(PPh3)2(Thy)(bipy)]PF6 complex): 19.4%
DNA content G0/G1 (HL-60 cells [4]; 1 µM, 48 h): 41.2 ± 9.6 %
DNA content G2/M (HL-60 cells [4]; 1 µM, 48 h): 10.8 ± 2.5%
DNA content S (HL-60 cells [4]; 1 µM, 48 h): 11.2 ± 2.4%
DNA content Sub-G0/G1 (DNA fragmentation) (HL-60 cells [4]; 1 µM, 48 h): 12.5 ± 3.5 %
DNA content Sub-G0/G1 (DNA fragmentation) (HL-60 cells [4]; 1 µM, 48 h, listed as [Ru(PPh3)2(Thy)(bipy)]PF6 complex): 12.5%
DNA content G0/G1 (HL-60 cells [4]; 2 µM, 24 h): 38.7 ± 2.2 %
DNA content G2/M (HL-60 cells [4]; 2 µM, 24 h): 17.9 ± 4.4%
DNA content S (HL-60 cells [4]; 2 µM, 24 h): 7.8 ± 1.5 %
DNA content Sub-G0/G1 (DNA fragmentation) (HL-60 cells [4]; 2 µM, 24 h): 30.1 ± 7.9 %
DNA content Sub-G0/G1 (DNA fragmentation) (HL-60 cells [4]; 2 µM, 24 h, listed as [Ru(PPh3)2(Thy)(bipy)]PF6 complex): 30.1%
DNA content G0/G1 (HL-60 cells [4]; 2 µM, 48 h): 42.6 ± 4.9 %
DNA content G2/M (HL-60 cells [4]; 2 µM, 48 h): 14.4 ± 2.5%
DNA content S (HL-60 cells [4]; 2 µM, 48 h): 10.5 ± 0.8 %
DNA content Sub-G0/G1 (DNA fragmentation) (HL-60 cells [4]; 2 µM, 48 h): 26.7 ± 7.0 %
DNA content Sub-G0/G1 (DNA fragmentation) (HL-60 cells [4]; 2 µM, 48 h, listed as [Ru(PPh3)2(Thy)(bipy)]PF6 complex): 26.7%
DNA content G0/G1 (HL-60 cells [4]; 4 µM, 24 h): 36.3 ± 3.1 %
DNA content G2/M (HL-60 cells [4]; 4 µM, 24 h): 13.2 ± 4.1%
DNA content S (HL-60 cells [4]; 4 µM, 24 h): 10.4 ± 2.4%
DNA content Sub-G0/G1 (DNA fragmentation) (HL-60 cells [4]; 4 µM, 24 h): 36.2 ± 9.5 %
DNA content Sub-G0/G1 (DNA fragmentation) (HL-60 cells [4]; 4 µM, 24 h, listed as [Ru(PPh3)2(Thy)(bipy)]PF6 complex): 36.2%
DNA content G0/G1 (HL-60 cells [4]; 4 µM, 48 h): 28.4 ± 5.9 %
DNA content G2/M (HL-60 cells [4]; 4 µM, 48 h): 5.5 ± 2.6 %
DNA content S (HL-60 cells [4]; 4 µM, 48 h): 4.4 ± 1.2 %
DNA content Sub-G0/G1 (DNA fragmentation) (HL-60 cells [4]; 4 µM, 48 h): 58.2 ± 8.8 %
DNA content Sub-G0/G1 (DNA fragmentation) (HL-60 cells [4]; 4 µM, 48 h, listed as [Ru(PPh3)2(Thy)(bipy)]PF6 complex): 58.2%
Reduction of the number of viable cells (HL-60 cells [5]; 1 μM, 24 h): 32.5%
Reduction of the number of viable cells (HL-60 cells [5]; 1 μM, 48 h): 62.6%
Reduction of the number of viable cells (HL-60 cells [5]; 2 μM, 24 h): 49.1%
Reduction of the number of viable cells (HL-60 cells [5]; 2 μM, 48 h): 66.6%
Reduction of the number of viable cells (HL-60 cells [5]; 4 μM, 24 h): 59.1%
Reduction of the number of viable cells (HL-60 cells [5]; 4 μM, 48 h): 73.4%
Number of nonviable cells (HL-60 cells [5]; 1, 2 and 4 μM, 24 and 48 h): No significant increase
IC50 (tested cancer cell lines): < 3 µM
IC50 [6]: 2.4 µM
IC50 [7]: < 2 µM
Caspase-3 activity (caspase-3 in HL-60 cells): induced activation of caspase-3
ROS levels (HL-60 cells [8]): did not induce a significant increase
Mitochondrial transmembrane potential (HL-60 cells [9]): caused the loss of the mitochondrial transmembrane potential
Effect of pan-caspase inhibitor Z-VAD(OMe)-FMK on the complex-induced increase in apoptotic cells (HL-60 cells [10]): partially prevented
IC50 [11]: 2.2 µM
